# Laboratory results: US6355633B1, “Aryl sulfonic acids and derivatives as FSH antagonists” (American Home Products Corporation, priority 1999, dated 2002)
# Target: T1, FSH receptor (Homo sapiens, UniProt P23945)
# T1 sequence (P23945 18-695): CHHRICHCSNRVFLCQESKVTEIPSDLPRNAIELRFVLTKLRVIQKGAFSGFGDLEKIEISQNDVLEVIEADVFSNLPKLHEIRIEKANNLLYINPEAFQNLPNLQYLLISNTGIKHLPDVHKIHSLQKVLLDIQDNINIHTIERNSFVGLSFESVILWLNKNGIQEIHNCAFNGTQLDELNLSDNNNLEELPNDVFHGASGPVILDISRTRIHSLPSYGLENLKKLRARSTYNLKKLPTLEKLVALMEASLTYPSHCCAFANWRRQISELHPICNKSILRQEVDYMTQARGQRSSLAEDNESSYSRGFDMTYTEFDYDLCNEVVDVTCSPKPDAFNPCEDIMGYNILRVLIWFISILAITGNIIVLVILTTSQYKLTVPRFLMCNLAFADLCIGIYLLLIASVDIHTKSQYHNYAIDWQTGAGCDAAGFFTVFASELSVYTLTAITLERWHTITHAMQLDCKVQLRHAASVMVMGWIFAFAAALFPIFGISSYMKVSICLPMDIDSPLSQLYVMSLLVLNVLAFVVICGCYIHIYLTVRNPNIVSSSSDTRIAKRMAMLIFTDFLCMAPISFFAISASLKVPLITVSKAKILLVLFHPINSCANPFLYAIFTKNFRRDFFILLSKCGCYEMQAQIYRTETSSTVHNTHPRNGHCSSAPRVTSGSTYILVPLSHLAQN
# Experiment: FSH Receptor Radioligand Membrane Binding Standard Pharmacological Test Procedure
# Set-up: expressed in transfected cells
# Settings: [125I]FSH binding to membranes of CHO cells stably transfected with the human FSH receptor
# Description: FSH Receptor Radioligand Membrane Binding Standard Pharmacological Test Procedure
# Membrane Source: Chinese hamster ovarian cells stably transfected with the human FSH receptor were cultured (Ultra CHO medium containing 1% fetal bovine serum and 200 μg/mL G418) in and harvested. Cells were collected by centrifugation and resulting cell pellets were frozen and stored at −70° C.
# Membrane Receptor Preparation: Frozen cell pellets were weighed and resuspended in binding buffer to a final concentration of 30 mg wet weight/mL. Cell suspension for each pellet was homogenized using a Tempest homogenizer (setting=1; 5 strokes; VirTis, Gardiner, N.Y.). Cell homogenates were pooled and 35 mL aliquots were transferred to 50-mL polypropylene copolymer centrifuge tubes (Nalgene cat. #3110-0500). Tubes were spun at 12,000 rpm (SS34 rotor) for 12 min at 4° C. Resulting supernatant fractions were discarded and pellets were stored at −70° C. until use. On the day of the procedure, 35 mL binding buffer was added to each tube (35 mL membrane suspension was sufficient for three 96-well plates). The membrane pellet was dispersed by trituration using a pipet. The resulting suspension wass homogenized using a Tempest homogenizer (3 strokes at setting=1).
# Receptor Binding Test procedure: Membrane homogenate (100 μl) was added to each well of a 96-well microtiter plate (Falcon # 3077). All reactions were tested in triplicate. Test compound solutions (50 μl) were added to the designated wells. Total bound counts were determined by adding 50 μl binding buffer containing 4% DMSO to the designated wells. […] Plates were pre-incubated for 15 min at room temperature on shaking platform (setting=3). After preincubation [^125I]FSH (50 μl) was added to each well and plates were incubated for 2 h at room temperature on shaking platform (setting=3). The reaction was terminated by transfer of the membrane preparation to glass fiber filters (Blue Mat #11740; 102×256 mm; Skatron Instruments, Sterling, Va.) that had been pretreated with 1% BSA in wash buffer for at least 30 min, but not longer than 1 h using a 96-well microtiter vacuum harvester (Skatron Instruments). The membrane preparation was washed with 5 cycles of ice-cold wash buffer (200 μl/well/cycle) followed by a pulse wash of 3 cycles (100 μl/well/cycle). The total wash volume per well was 1.3 mL. The filters were dried by a 10 sec aspiration. Disks corresponding to each well of the microtiter plate were punched out of the filter mat into 12×75 mm polypropylene tubes. The radioactivity present on each of the disks was measured using a gamma counter.
# An FSH dose response curve (0.001, 0.01, 0.1, 1, 10, and 100 nM) was generated for each binding procedure to monitor procedure to procedrue variability.
# FSH Receptor Radioligand Membrane Binding Procedure Buffers and Reagents
# Binding buffer is prepared in 11 volumes containing Trizma-HCl, MgCl2, CaCl2 and sodium azide, the pH was adjusted to 7.2 with NaOH, and stored at 4° C. until use. BSA was weighed out on the day of the procedure and added to the amount of buffer required for the procedure (usually 150 mL). The protease inhibitors were prepared as 1 mg/mL stocks (aprotinin, leupeptin, and phosphoramidon were prepared in binding buffer without BSA and protease inhibitors; pepstatin and PMSF were prepared in methanol), stored in 1 mL aliquots at −70° C., and added to the binding buffer on the day of the procedure.
# Wash buffer was prepared containing Trizma-HCl, MgCl2 and EDTA, the pH was adjusted to 7.2 with NaOH, and stored at 4° C.
# Filter Soak Buffer (pH 7.2)
# BSA was weighed out on the day of the procedure and added to 300 mL of wash buffer. The filter soak buffer was used for two procedures before being discarded.
# A portion of the stock solution was diluted in binding buffer to a concentration of 200 pM.
# FSH Solution for Determining Non-specific Binding: Purified human FSH was prepared as a 100 μM solution in binding buffer without protease inhibitors. […]
row,Compound,IC50 [µM]
1,"NC(=O)CS(=O)(=O)c1ccc(C(=O)Nc2ccc(/C=C/c3ccc(NC(=O)c4ccc(S(=O)(=O)CC(N)=O)cc4)cc3S(=O)(=O)O)c(S(=O)(=O)O)c2)cc1 [Example 37b, 5-[[4-[(2-Amino-2-oxoethyl)sulfonyl]benzoyl]amino]-2-[(E)-2-[4-[[4-[(2-amino-2-oxoethyl)sulfonyl]benzoyl]amino]-2-sulfophenyl]ethenyl]-benzenesulfonic Acid]",2.9
2,"O=C(Nc1ccc(/C=C/c2ccc(NC(=O)c3ccc(OCc4ccco4)c(S(=O)(=O)N4CCOCC4)c3)cc2S(=O)(=O)O)c(S(=O)(=O)O)c1)c1ccc(OCc2ccco2)c(S(=O)(=O)N2CCOCC2)c1 [Example 30u, 2,2′-[(E)-1,2-Ethenediyl]bis[5-[[4-(2-furanylmethoxy)-3-(4-morpholinylsulfony)benzoyl]amino]benzenesulfonic Acid]]",10
3,"O=C(CS(=O)(=O)c1cccc(C(=O)Nc2ccc(/C=C/c3ccc(NC(=O)c4cccc(S(=O)(=O)CC(=O)NCCO)c4)cc3S(=O)(=O)O)c(S(=O)(=O)O)c2)c1)NCCO [Example 37c, 5-[[3-[[2-[(2-Hydroxyethyl)amino]-2-oxoethyl]sulfonyl]benzoyl]amino]-2-[(E)-2-[4-[[3-[[2-[(2-hydroxyethyl)amino]-2-oxoethyl]sulfonyl]benzoyl]amino]-2-sulfo-phenyl]ethenyl]benzenesulfonic Acid]",6.7
4,"O=C(Nc1ccc(/C=C/c2ccc(NC(=O)c3cccc(S(=O)(=O)N4CCOCC4)c3)cc2S(=O)(=O)O)c(S(=O)(=O)O)c1)c1cccc(S(=O)(=O)N2CCOCC2)c1 [Example 33a, 2,2′-[(E)-1,2-Ethenediyl]bis[5-[[3-(4-morpholinylsulfonyl)benzoyl]amino]benzenesulfonic Acid]]",6.9
5,"COCCNc1ccc(C(=O)Nc2ccc(/C=C/c3ccc(NC(=O)c4ccc(NCCOC)c(S(=O)(=O)N5CCOCC5)c4)cc3S(=O)(=O)O)c(S(=O)(=O)O)c2)cc1S(=O)(=O)N1CCOCC1 [Example 30l, 2,2′-[(E)-1,2-Ethenediyl]bis[5-[[4-[(2-methoxyethyl)amino]-3-(4-morpholinylsulfonyl)benzoyl]amino]benzenesulfonic Acid]]",3.9
6,"COC(=O)CS(=O)(=O)c1ccc(C(=O)Nc2ccc(C=Cc3ccc(NC(=O)c4ccc(S(=O)(=O)CC(=O)OC)cc4)cc3S(=O)(=O)O)c(S(=O)(=O)O)c2)cc1 [Example 32c, [4-(4-{2-[4-(4-Methoxycarbonylmethanesulfonyl-benzoylamino)-2-sulfo-phenyl]-vinyl}-3-sulfo-phenylcarbomoyl)-benzenesulfonyl]-acetic Acid, Methyl Ester]",6.9
7,"CN(C)c1ccc(C(=O)Nc2ccc(/C=C/c3ccc(NC(=O)c4ccc(N(C)C)c(S(=O)(=O)N5CCOCC5)c4)cc3S(=O)(=O)O)c(S(=O)(=O)O)c2)cc1S(=O)(=O)N1CCOCC1 [Example 32n, 2,2′-[(E)-1,2-Ethenediyl]bis[5-[[4-(dimethylamino)-3-(4-morpholinylsulfonyl)benzoyl]amino]benzenesulfonic Acid]]",4.8
8,"O=C(Nc1ccc(CCc2ccc(NC(=O)c3ccc(CC4CCCO4)c(S(=O)(=O)N4CCOCC4)c3)cc2S(=O)(=O)O)c(S(=O)(=O)O)c1)c1ccc(CC2CCCO2)c(S(=O)(=O)N2CCOCC2)c1 (centres unmarked) [Example 32q, 2,2′-(1,2-Ethanediyl)bis[5-[[4-(tetrahydro-2-furanmethyl)-3-(4-morpholinylsulfonyl)benzoyl]amino]benzenesulfonic Acid]]",2.4
9,"CS(=O)(=O)c1ccc(C(=O)Nc2ccc(/C=C/c3ccc(NC(=O)c4ccc(S(C)(=O)=O)c(N)c4)cc3S(=O)(=O)O)c(S(=O)(=O)O)c2)cc1N [Example 35, 2,2′-[(E)-1,2-Ethenediyl]bis[5-[[3-amino-4-(methylsulfonyl)benzoyl]amino]benzenesulfonic Acid]]",4.1
10,"NC(=O)CS(=O)(=O)c1cccc(C(=O)Nc2ccc(/C=C/c3ccc(NC(=O)c4cccc(S(=O)(=O)CC(N)=O)c4)cc3S(=O)(=O)O)c(S(=O)(=O)O)c2)c1 [Example 37d, 5-[[3-[(2-Amino-2-oxoethyl)sulfonyl]benzoyl]amino]-2-[(E)-2-[4-[[3-[(2-amino-2-oxoethyl)sulfonyl]benzoyl]amino]-2-sulfophenyl]ethenyl]-benzenesulfonic Acid]",4.3

# Target: T1, FSH receptor
# Experiment: In Vitro Bio-test Procedure of Agonists and Antagonists to the FSH Receptor (cAMP accumulation in CHO-3D2 cells)
# Type: cell-based
# Set-up: expressed in transfected cells; host or cells: CHO-3D2 cells
# Settings: not given
# Description: In Vitro Bio-test Procedure of Agonists and Antagonists to the FSH Receptor
# The compounds were subsequently diluted in sterile procedure medium (Optimem (Gibco/BRL, Grand Island, N.Y.)/0.1% BSA) prior to use in the bio-procedure.
# Preparation of CHO-3D2 Cells; CHO-3D2 cells were plated into 96-well Nunc tissue culture plates at a density of 30,000 cells/well in DMEM/F12 medium (Gibco/BRL, Grand Island, N.Y.) supplemented with 5% Fetal Bovine Serum (Hyclone, Fetal Clone II), 2 mM L-glutamine and penicillin/streptomycin (100 U/mL). Cells were plated one day prior to performing the bio-procedure.
# Procedure: On the day of procedure, the wells were washed two times with 100 ul/well of pre-warmed (37 deg C.) procedure medium. After aspirating the second wash, an additional 100 ul of procedure medium was added to each well and the cells pre-incubated for 30-45 minutes at 37 deg C. In a humidified incubator with 5%CO2/95% air. The cells were then challenged with varying dilutions of the test substance(s) in a 50 ul total incubation volume in procedure medium for 30 minutes at 37 deg C. in the humidified incubator. The challenge was terminated by the addition of 50 ul of 0.2 N HCl to each well. CAMP accumulation in the medium was measured by radioimmunoassay.
# Test Groups: In the 96-well format, the plate is organized into 12 columns each containing 8 rows of wells. The plate was split in half to test a single compound in both agonist and antagonist mode on the same plate.
# For agonist mode, compounds were tested using 5 different concentrations in a dose-response paradigm using one column as a control (challenge medium alone) in agonist mode.
# The 96-well format allowed for the capability to test 4 columns of compound, using one of the remaining columns for negative control (challenge medium alone) and the other remaining column for ampositive control (ED20 of FSH alone).
# The doses chosen to test each compound were extrapolated from the initial screening process (receptor binding data). Along with the test compounds, FSH was run in agonist mode using doses ranging from 0.1 ng/mL-1000 ng/mL as a postive control. Cytotoxicity of the compounds were screened by treating cells with the highest concentration of each compound used in the cAMP procedure for 30 minutes followed by washing of the cells 2 times with 100 ul PBS. The cells were then incubated for 5 min at 37 deg C. in the presence of 50 ug/mL Fluorescein diacetate and 20 ug/mL Propidium iodide in 100 ul PBS. The cells were washed two times with 100 ul PBS followed by examination of the cells under a fluorescence microscope using a 490 nm filter. Viable cells stained green throughout, while dead cells had red fluorescent nuclei.
# Analysis of Results: cAMP accumulation was expressed as fmol/mL. […] Data were analyzed statistically by analysis of variance and significant differences between treatments and control determined by Dunnett's test. In antagonist mode, a Duncan's test was used.
# Reference Compounds: Test compounds were compared to the effect of purified or recombinant human FSH.
row,Compound,IC50 [µM]
1,"NC(=O)CS(=O)(=O)c1ccc(C(=O)Nc2ccc(/C=C/c3ccc(NC(=O)c4ccc(S(=O)(=O)CC(N)=O)cc4)cc3S(=O)(=O)O)c(S(=O)(=O)O)c2)cc1 [Example 37b, 5-[[4-[(2-Amino-2-oxoethyl)sulfonyl]benzoyl]amino]-2-[(E)-2-[4-[[4-[(2-amino-2-oxoethyl)sulfonyl]benzoyl]amino]-2-sulfophenyl]ethenyl]-benzenesulfonic Acid]",1.2
